The values below come from patent publication US8613914B2, “Peptidomimetic sulfamide compounds and antiviral uses thereof” (Novartis AG, priority 2009, dated 2013).

Structures are written as SMILES.

The target in the experiment is HCV NS3-4A serine protease (full-length NS3-4A protein) (Hepatitis C virus genotype 1a (isolate 1) (HCV), UniProt P26664). In words: HCV NS3-4A protease assay. Format: biochemical, HCV genotype 1a. The note with it: strain HCV-1, fluorogenic peptide substrate, read-out: Protease assay Ex. 12 IC50. The procedure:
The inhibitory activity of certain compounds of Table A against HCV NS3-4A serine protease is determined in a homogenous assay using the full-length NS3-4A protein (genotype 1a, strain HCV-1) and a commercially available internally-quenched fluorogenic peptide substrate as described by Taliani, M., et al. 1996 Anal. Biochem. 240:60-67, which is incorporated by reference in its entirety.

Sequence of HCV NS3-4A serine protease (full-length NS3-4A protein) (P26664 1027-1657): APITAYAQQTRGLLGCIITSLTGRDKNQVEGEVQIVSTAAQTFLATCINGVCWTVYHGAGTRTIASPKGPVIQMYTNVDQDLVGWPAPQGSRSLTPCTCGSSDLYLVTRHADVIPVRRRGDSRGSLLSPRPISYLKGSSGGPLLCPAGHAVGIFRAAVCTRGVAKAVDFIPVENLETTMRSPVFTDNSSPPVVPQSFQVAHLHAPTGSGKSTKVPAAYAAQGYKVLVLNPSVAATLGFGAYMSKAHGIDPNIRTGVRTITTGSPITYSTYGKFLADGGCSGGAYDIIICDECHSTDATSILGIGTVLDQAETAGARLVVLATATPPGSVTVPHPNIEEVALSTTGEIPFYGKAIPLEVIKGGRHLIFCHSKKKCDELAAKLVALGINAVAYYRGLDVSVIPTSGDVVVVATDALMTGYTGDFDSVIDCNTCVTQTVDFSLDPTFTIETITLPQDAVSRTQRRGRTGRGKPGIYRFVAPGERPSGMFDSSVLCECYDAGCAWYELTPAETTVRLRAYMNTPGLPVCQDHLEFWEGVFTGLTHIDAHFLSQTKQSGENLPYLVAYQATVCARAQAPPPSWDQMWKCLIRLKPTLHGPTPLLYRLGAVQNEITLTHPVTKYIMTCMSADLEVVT
Sequence of HCV NS3-4A serine protease (full-length NS3-4A protein) (P26664 1658-1711 partner): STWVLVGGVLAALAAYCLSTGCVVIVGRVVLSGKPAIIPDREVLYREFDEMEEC

For orientation: IC50 means the concentration that gives 50% inhibition. For the compound `C=C[C@@H]1C[C@]1(NC(=O)[C@@H]1C[C@@]2(CN1C(=O)[C@@H](NC(=O)[C@@H](NC(=O)Cn1nc(C)cc1C)C1CCCCC1)C(C)(C)C)C(C)(C)C21CCC1)C(=O)NS(=O)(=O)N1CCCC1` [Compound 186, (5R,8S)-7-{(2S)-2-[(cyclohexyl{[(3,5-dimethyl-1H-pyrazol-1-yl)acetyl]amino}acetyl)amino]-3,3-dimethylbutanoyl}-10,10-dimethyl-N-{(1R,2S)-1-[(pyrrolidin-1-ylsulfonyl)carbamoyl]-2-vinylcyclopropyl}-7-azadispiro[3.0.4.1]decane-8-carboxamide], the half-inhibitory concentration (IC50) came out at 65 nM. Take `C=C[C@@H]1C[C@]1(NC(=O)[C@@H]1C[C@@]2(CN1C(=O)[C@@H](NC(=O)[C@@H](NC(=O)[C@@H]1CCCN1CC)C1CCCCC1)C(C)(C)C)C(C)(C)C21CCC1)C(=O)NS(=O)(=O)N1CCCCC1` [Compound 95, (5R,8S)-7-[(2S)-2-{[(2S)-2-cyclohexyl-2-({[(2S)-1-ethylpyrrolidin-2-yl]carbonyl}amino)acetyl]amino}-3,3-dimethylbutanoyl]-10,10-dimethyl-N-{(1R,2S)-1-[(piperidin-1-ylsulfonyl)carbamoyl]-2-vinylcyclopropyl}-7-azadispiro[3.0.4.1]decane-8-carboxamide]: the IC50 turned out to be 5 nM. The value for `C=C[C@@H]1C[C@]1(NC(=O)[C@@H]1C[C@@]2(CN1C(=O)[C@@H](NC(=O)[C@@H](NC(=O)[C@@H]1CCCCN1C(C)C)C1CCCCC1)C(C)(C)C)C(C)(C)C21CCC1)C(=O)NS(=O)(=O)NC1CCC1` [Compound 57, (5R,8S)-N-[(1R,2S)-1-{[(cyclobutylamino)sulfonyl]carbamoyl}-2-vinylcyclopropyl]-7-[(2S)-2-{[(2S)-2-cyclohexyl-2-({[(2S)-1-isopropylpiperidin-2-yl]carbonyl}amino)acetyl]amino}-3,3-dimethylbutanoyl]-10,10-dimethyl-7-azadispiro[3.0.4.1]decane-8-carboxamide] was 6.5 nM; that for `C=C[C@@H]1C[C@]1(NC(=O)[C@@H]1C[C@@]2(CN1C(=O)[C@@H](NC(=O)[C@@H](NC(=O)[C@@H]1CCCCN1C(C)C)C1CCCCC1)C(C)(C)C)C(C)(C)C21CCC1)C(=O)NS(=O)(=O)N(CC)CCC` [Compound 106, (5R,8S)-7-[(2S)-2-{[(2S)-2-cyclohexyl-2-({[(2S)-1-isopropylpiperidin-2-yl]carbonyl}amino)acetyl]amino}-3,3-dimethylbutanoyl]-N-[(1R,2S)-1-({[ethyl(propyl)amino]sulfonyl}carbamoyl)-2-vinylcyclopropyl]-10,10-dimethyl-7-azadispiro[3.0.4.1]decane-8-carboxamide] was 10 nM. Turning to `C=C[C@@H]1C[C@]1(NC(=O)[C@@H]1C[C@@]2(CN1C(=O)[C@@H](NC(=O)[C@@H](NC(=O)[C@@H]1CCCCN1C(C)C)C1CCCCC1)C(C)(C)C)C(C)(C)C21CCC1)C(=O)NS(=O)(=O)NC(C)(C)C` [Compound 169, (5R,8S)-N-[(1R,2S)-1-{[(tert-butylamino)sulfonyl]carbamoyl}-2-vinylcyclopropyl]-7-[(2S)-2-{[(2S)-2-cyclohexyl-2-({[(2S)-1-isopropylpiperidin-2-yl]carbonyl}amino)acetyl]amino}-3,3-dimethylbutanoyl]-10,10-dimethyl-7-azadispiro[3.0.4.1]decane-8-carboxamide], the IC50 turned out to be 1.5 nM. The value for `C=CC1CC1(NC(=O)[C@@H]1C[C@@]2(CN1C(=O)[C@@H](NC(=O)[C@@H](NC(=O)C1CCCCN1C(C)C)C(C)(C)C)C(C)(C)C)C(C)(C)C21CCC1)C(=O)NS(=O)(=O)N1CCC[C@H]1CO` (stereo partly drawn) [Compound 163, (5R,8S)-N-[1-({[(2S)-2-(hydroxymethyl)pyrrolidin-1-yl]sulfonyl}carbamoyl)-2-vinylcyclopropyl]-7-[(2S)-2-{[(2S)-2-{[(1-isopropylpiperidin-2-yl)carbonyl]amino}-3,3-dimethylbutanoyl]amino}-3,3-dimethylbutanoyl]-10,10-dimethyl-7-azadispiro[3.0.4.1]decane-8-carboxamide] was 1500 nM; that for `C=C[C@@H]1C[C@]1(NC(=O)[C@@H]1C[C@@]2(CN1C(=O)[C@@H](NC(=O)[C@@H](NC(=O)c1ccccc1NC)C1CCCCC1)C(C)(C)C)C(C)(C)C21CCC1)C(=O)NS(=O)(=O)N1CCCC1` [Compound 182, (5R,8S)-7-{(2S)-2-[(cyclohexyl{[2-(methylamino)benzoyl]amino}acetyl)amino]-3,3-dimethylbutanoyl}-10,10-dimethyl-N-{(1R,2S)-1-[(pyrrolidin-1-ylsulfonyl)carbamoyl]-2-vinylcyclopropyl}-7-azadispiro[3.0.4.1]decane-8-carboxamide] was 70 nM; that for `C=C[C@@H]1C[C@]1(NC(=O)[C@@H]1C[C@@]2(CN1C(=O)[C@@H](NC(=O)CC1(CC(N)=O)CCCCC1)C(C)(C)C)C(C)(C)C21CCC1)C(=O)NS(=O)(=O)N1CCCC1` [Compound 60, (5R,8S)-7-[(2S)-2-({[1-(2-amino-2-oxoethyl)cyclohexyl]acetyl}amino)-3,3-dimethylbutanoyl]-10,10-dimethyl-N-{(1R,2S)-1-[(pyrrolidin-1-ylsulfonyl)carbamoyl]-2-vinylcyclopropyl}-7-azadispiro[3.0.4.1]decane-8-carboxamide] was 1250 nM. The value for `C=C[C@@H]1C[C@]1(NC(=O)[C@@H]1C[C@@]2(CN1C(=O)[C@@H](NC(=O)[C@@H](NC(=O)[C@@H]1CCCN1C(=O)OCCF)C1CCCCC1)C1CCOCC1)C(C)(C)C21CCC1)C(=O)NS(=O)(=O)N1CCCC1` [Compound 76, 2-fluoroethyl(2S)-2-{[(1S)-1-cyclohexyl-2-{[(1S)-2-[(5R,8S)-10,10-dimethyl-8-({(1R,2S)-1-[(pyrrolidin-1-ylsulfonyl)carbamoyl]-2-vinylcyclopropyl}carbamoyl)-7-azadispiro[3.0.4.1]dec-7-yl]-2-oxo-1-(tetrahydro-2H-pyran-4-yl)ethyl]amino}-2-oxoethyl]carbamoyl}pyrrolidine-1-carboxylate] was 80 nM.

In the case of `C=C[C@@H]1C[C@]1(NC(=O)[C@@H]1C[C@@]2(CN1C(=O)[C@@H](NC(=O)[C@@H](NC(=O)[C@@H]1CCCCN1C(C)C)C1CCCCC1)C(C)(C)C)C(C)(C)C21CCC1)C(=O)NS(=O)(=O)N(C)CC1CC1` [Compound 50, (5R,8S)-7-[(2S)-2-{[(2S)-2-cyclohexyl-2-({[(2S)-1-isopropylpiperidin-2-yl]carbonyl}amino)acetyl]amino}-3,3-dimethylbutanoyl]-N-[(1R,2S)-1-({[(cyclopropylmethyl)(methyl)amino]sulfonyl}carbamoyl)-2-vinylcyclopropyl]-10,10-dimethyl-7-azadispiro[3.0.4.1]decane-8-carboxamide], the IC50 came to 3.8 nM. The value for `C=CC1CC1(NC(=O)[C@@H]1C[C@@]2(CN1C(=O)[C@@H](NC(=O)[C@@H](NC(=O)C1CCCCN1C(C)C)C1CCCCC1)C(C)(C)C)C(C)(C)C21CCC1)C(=O)NS(=O)(=O)N1CC(F)(F)C1` (stereo partly drawn) [Compound 164, (5R,8S)-7-[(2S)-2-{[(2S)-2-cyclohexyl-2-{[(1-isopropylpiperidin-2-yl)carbonyl]amino}acetyl]amino}-3,3-dimethylbutanoyl]-N-(1-{[(3,3-difluoroazetidin-1-yl)sulfonyl]carbamoyl}-2-vinylcyclopropyl)-10,10-dimethyl-7-azadispiro[3.0.4.1]decane-8-carboxamide] was 8 nM; that for `C=C[C@@H]1C[C@]1(NC(=O)[C@@H]1C[C@@]2(CN1C(=O)[C@@H](NC(=O)[C@@H](NC(=O)[C@@H]1CCCCN1CCF)C(C)(C)C)C(C)(C)C)C(C)(C)C21CCC1)C(=O)NS(=O)(=O)N1CCOCC1` [Compound 8, (5R,8S)-7-[(2S)-2-{[(2S)-2-({[(2S)-1-(2-fluoroethyl)piperidin-2-yl]carbonyl}amino)-3,3-dimethylbutanoyl]amino}-3,3-dimethylbutanoyl]-10,10-dimethyl-N-{(1R,2S)-1-[(morpholin-4-ylsulfonyl)carbamoyl]-2-vinylcyclopropyl}-7-azadispiro[3.0.4.1]decane-8-carboxamide] was 300 nM; that for `C=C[C@@H]1C[C@]1(NC(=O)[C@@H]1C[C@@]2(CN1C(=O)[C@@H](NC(=O)[C@@H](NC(=O)[C@@H]1CCCCN1C(C)C)C1CCCCC1)C(C)(C)C)C(C)(C)C21CCC1)C(=O)NS(=O)(=O)N(C)C1CCC1` [Compound 49, (5R,8S)-N-[(1R,2S)-1-({[cyclobutyl(methyl)amino]sulfonyl}carbamoyl)-2-vinylcyclopropyl]-7-[(2S)-2-{[(2S)-2-cyclohexyl-2-({[(2S)-1-isopropylpiperidin-2-yl]carbonyl}amino)acetyl]amino}-3,3-dimethylbutanoyl]-10,10-dimethyl-7-azadispiro[3.0.4.1]decane-8-carboxamide] was 3.3 nM. The value for `C=C[C@@H]1C[C@]1(NC(=O)[C@@H]1C[C@@]2(CN1C(=O)[C@@H](NC(=O)[C@@H](NC(=O)[C@@H]1CCCCN1CC)C1CCCCC1)C(C)(C)C)C(C)(C)C21CCC1)C(=O)NS(=O)(=O)N(CC)CC` [Compound 77, (5R,8S)-7-[(2S)-2-{[(2S)-2-cyclohexyl-2-({[(2S)-1-ethylpiperidin-2-yl]carbonyl}amino)acetyl]amino}-3,3-dimethylbutanoyl]-N-[(1R,2S)-1-{[(diethylamino)sulfonyl]carbamoyl}-2-vinylcyclopropyl]-10,10-dimethyl-7-azadispiro[3.0.4.1]decane-8-carboxamide] was 0.9 nM; that for `C=C[C@@H]1C[C@]1(NC(=O)[C@@H]1C[C@@]2(CN1C(=O)[C@@H](NC(=O)[C@@H](NC(=O)[C@H]1CCCCN1C(C)C)C1CCCCC1)C(C)(C)C)C(C)(C)C21CCC1)C(=O)NS(=O)(=O)N1CCCCC1` [Compound 115, (5R,8S)-7-[(2S)-2-{[(2S)-2-cyclohexyl-2-({[(2R)-1-isopropylpiperidin-2-yl]carbonyl}amino)acetyl]amino}-3,3-dimethylbutanoyl]-10,10-dimethyl-N-{(1R,2S)-1-[(piperidin-1-ylsulfonyl)carbamoyl]-2-vinylcyclopropyl}-7-azadispiro[3.0.4.1]decane-8-carboxamide] was 4.5 nM.
